According to US10189839B2, “Tricyclic imidazole compounds as inhibitors of tryptophan hydroxylase” (ACTELION PHARMACEUTICALS LTD, priority 2013, dated 2019):

Biological target: T1, full length human TPH1 (Homo sapiens, UniProt P17752)
T1 construct: To generate the enzyme, full length human TPH1 is cloned into the plasmid pET20b(+); made in house; host or cells: E. coli
T1 sequence (P17752 1-444): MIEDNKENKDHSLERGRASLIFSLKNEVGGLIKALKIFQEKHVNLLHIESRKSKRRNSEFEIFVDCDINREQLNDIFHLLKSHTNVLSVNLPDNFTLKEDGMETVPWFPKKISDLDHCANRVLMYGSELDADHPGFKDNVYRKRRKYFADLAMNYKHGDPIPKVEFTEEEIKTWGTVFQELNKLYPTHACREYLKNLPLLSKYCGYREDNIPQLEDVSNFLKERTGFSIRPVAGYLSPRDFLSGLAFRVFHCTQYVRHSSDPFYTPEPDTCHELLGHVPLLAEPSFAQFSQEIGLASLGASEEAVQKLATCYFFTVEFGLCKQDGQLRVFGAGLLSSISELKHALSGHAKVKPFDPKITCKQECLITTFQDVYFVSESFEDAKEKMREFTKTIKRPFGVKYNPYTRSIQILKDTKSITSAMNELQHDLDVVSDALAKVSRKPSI
Experiment: Biochemical in vitro assay using fluorescence readout (TPH1 enzyme activity)
In short: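 E. coli-expressed full-length human TPH1 (40-80 nM), affinity- and size-exclusion-purified, incubated 60 min at 15° C. in 0.1M Tris-HCl pH 7.6 with 1 mM DTT, 0.2 mg/ml catalase, 100 μM 6-methyltetrahydropterine and 40 μM L-tryptophan. 5-Hydroxy-L-tryptophan read by fluorescence (ex 300/em 540 nm) after HClO4 quench; IC50 versus vehicle, mean where repeated.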

[1] = Table 1, mean where determined several times

SMILES	IC50 [1]	IC50 (Table 2)
CS(=O)(=O)Nc1ccc(OCC(=O)N2CCc3nc4n(c3C2c2ccc(Cl)cc2F)CCCC4)c(C2CC2)n1 (centres unmarked) [Example 1.1.20, N-(5-(2-(1-(4-chloro-2-fluorophenyl)-3,4,6,7,8,9-hexahydroimidazo[1,2-a:5,4-c′]dipyridin-2(1H)-yl)-2-oxoethoxy)-6-cyclopropylpyridin-2-yl)methanesulfonamide]	21 nM	
O=C(NC1CC1)c1ccc(OCC(=O)N2CCc3nc4n(c3C2c2ccc(OC(F)(F)F)cc2F)CCCC4)c(Cl)n1 (centres unmarked) [Example 1.20.1, 6-chloro-N-cyclopropyl-5-(2-(1-(2-fluoro-4-(trifluoromethoxy)phenyl)-3,4,6,7,8,9-hexahydroimidazo[1,2-a:5,4-c′]dipyridin-2(1H)-yl)-2-oxoethoxy)picolinamide]	26 nM	
Cc1ccc(C2c3c(nc4n3CCNC4)CCN2C(=O)COc2ccc(CN3CCOCC3)cc2Cl)c(F)c1 (centres unmarked) [Example 5.12.2, 2-(2-chloro-4-(morpholinomethyl)phenoxy)-1-(1-(2-fluoro-4-methylphenyl)-3,4,6,7,8,9-hexahydropyrido[4′,3′:4,5]imidazo[1,2-a]pyrazin-2(1H)-yl)ethanone]	52 nM	
CS(=O)(=O)Nc1ccc(OCC(=O)N2CCc3nc4n(c3C2c2ncc(Cl)cc2F)CCOC4)c(Cl)n1 (centres unmarked) [Example 6.4.1, N-(6-chloro-5-(2-(6-(5-chloro-3-fluoropyridin-2-yl)-3,4,8,9-tetrahydro-1H-pyrido[4′,3′:4,5]imidazo[2,1-c][1,4]oxazin-7(6H)-yl)-2-oxoethoxy)pyridin-2-yl)methanesulfonamide]	143 nM	
Cc1cc(F)cnc1C1c2c(nc3n2CCCC3)CCN1C(=O)COc1ccc(NS(C)(=O)=O)nc1Cl (centres unmarked) [Example 1.19.1, N-(6-chloro-5-(2-(1-(5-fluoro-3-methylpyridin-2-yl)-3,4,6,7,8,9-hexahydroimidazo[1,2-a:5,4-c′]dipyridin-2(1H)-yl)-2-oxoethoxy)pyridin-2-yl)methanesulfonamide]	113 nM	
CC(C)(C)OC(=O)N1CCn2c(nc3c2C(c2cc(C(=O)NC#N)cs2)N(C(=O)COc2ccc(N4CCOCC4)nc2Cl)CC3)C1 (centres unmarked) [Example 5.14.1, Tert-butyl 2-(2-((2-chloro-6-morpholinopyridin-3-yl)oxy)acetyl)-1-(4-(cyanocarbamoyl)thiophen-2-yl)-1,2,3,4,8,9-hexahydropyrido[4′,3′:4,5]imidazo[1,2-a]pyrazine-7(6H)-carboxylate]		341 nM
CCc1nc(NS(=O)(=O)N(C)C)ccc1OCC(=O)N1CCc2nc3n(c2C1c1ccc(Cl)cc1F)CCS3 (centres unmarked) [Example 4.1.7, N-(5-(2-(5-(4-chloro-2-fluorophenyl)-2,3,7,8-tetrahydrothiazolo[2′,3′:2,3]imidazo[4,5-c]pyridin-6(5H)-yl)-2-oxoethoxy)-6-ethylpyridin-2-yl)-N′,N′-dimethyl-sulfamide]	76 nM	
CS(=O)(=O)Nc1ccc(OCC(=O)N2CCc3nc4n(c3C2c2ccc(Cl)cc2F)CCOC4)c(Cl)n1 (centres unmarked) [Example 6.1.2, N-(6-chloro-5-(2-(6-(4-chloro-2-fluorophenyl)-3,4,8,9-tetrahydro-1H-pyrido[4′,3′:4,5]imidazo[2,1-c][1,4]oxazin-7(6H)-yl)-2-oxoethoxy)pyridin-2-yl)methanesulfonamide]	18 nM	
Cc1cnc(C2c3c(nc4n3CCCC4)CCN2C(=O)COc2ccc(N(C)S(C)(=O)=O)nc2Cl)c(F)c1 (centres unmarked) [Example 1.6.6, N-(6-chloro-5-(2-(1-(3-fluoro-5-methylpyridin-2-yl)-3,4,6,7,8,9-hexahydroimidazo[1,2-a:5,4-c′]dipyridin-2(1H)-yl)-2-oxoethoxy)pyridin-2-yl)-N-methylmethanesulfonamide]	44 nM	
CN(c1ccc(OCC(=O)N2CCc3nc4n(c3C2c2ccc(Cl)cc2F)CCCC4)c(Cl)n1)S(C)(=O)=O (centres unmarked) [Example 1.1.9, N-(6-chloro-5-(2-(1-(4-chloro-2-fluorophenyl)-3,4,6,7,8,9-hexahydroimidazo[1,2-a:5,4-c′]dipyridin-2(1H)-yl)-2-oxoethoxy)pyridin-2-yl)-N-methylmethanesulfonamide]	25 nM	
Cc1nc(C)c(C2c3c(nc4n3CCCC4)CCN2C(=O)COc2ccc(C(F)(F)F)cc2Cl)s1 (centres unmarked) [Example 1.10.11, 2-(2-chloro-4-(trifluoromethyl)phenoxy)-1-(1-(2,4-dimethylthiazol-5-yl)-3,4,6,7,8,9-hexahydroimi-dazo[1,2-a:5,4-c′]dipyridin-2(1H)-yl)ethanone]	132 nM	
CN(C)C(=O)c1ccc(OCC(=O)N2CCc3nc4n(c3C2c2sc(C(=O)N(C)C)cc2F)CCOC4)c(Cl)n1 (centres unmarked) [Example 6.3.1, 6-chloro-5-(2-(6-(5-(dimethylcarbamoyl)-3-fluoro-thiophen-2-yl)-3,4,8,9-tetrahydro-1H-pyrido[4′,3′:4,5]imidazo[2,1-c][1,4]oxazin-7(6H)-yl)-2-oxoethoxy)-N,N-dimethylpicolinamide]	37 nM	
CC(=O)N1CCn2c(nc3c2C(c2sc(C(=O)N(C)C)cc2F)N(C(=O)COc2ccc(C(=O)N(C)C)nc2Cl)CC3)C1 (centres unmarked) [Example 5.7.1, 5-(2-(7-acetyl-1-(5-(dimethylcarbamoyl)-3-fluorothiophen-2-yl)-3,4,6,7,8,9-hexahydropyrido[4′,3′:4,5]imidazo[1,2-a]pyrazin-2(1H)-yl)-2-oxoethoxy)-6-chloro-N,N-dimethylpicolinamide]	27 nM	
O=C(NC1CC1)c1ccc(OCC(=O)N2CCc3nc4n(c3C2c2ccc(Cl)cc2F)CCCC4)c(Cl)n1 (centres unmarked) [Example 1.1.6, 6-chloro-5-(2-(1-(4-chloro-2-fluorophenyl)-3,4,6,7,8,9-hexahydroimidazo[1,2-a:5,4-c′]dipyridin-2(1H)-yl)-2-oxoethoxy)-N-cyclopropylpicolinamide]	19 nM	
CC(C)(C)OC(=O)N1CCn2c(nc3c2C(c2ccc(C4CC4)cc2F)N(C(=O)COc2ccc(N4CCOCC4)cc2Cl)CC3)C1 (centres unmarked) [Example 5.2.2, tert-butyl 2-(2-(2-chloro-4-morpholinophenoxy)acetyl)-1-(4-cyclopropyl-2-fluorophenyl)-1,2,3,4,8,9-hexahydropyrido[4′,3′:4,5]imidazo[1,2-a]pyrazine-7(6H)-carboxylate]	121 nM	

Further compounds by falling IC50 [1], results first:

IC50 [1]	IC50 (Table 2)	SMILES
16 nM		Cc1nc(C)c(C2c3c(nc4n3CCCC4)CCN2C(=O)COc2ccc(-c3ncco3)nc2Cl)s1 (centres unmarked) [Example 1.10.3, 2-((2-chloro-6-(oxazol-2-yl)pyridin-3-yl)oxy)-1-(1-(2,4-dimethylthiazol-5-yl)-3,4,6,7,8,9-hexahydroimi-dazo[1,2-a:5,4-c′]dipyridin-2(1H)-yl)ethanone]
15 nM		CN(C)C(=O)c1ccc(OCC(=O)N2CCc3nc4n(c3C2c2ccc(Cl)cc2F)CCCC4)c(Cl)n1 (centres unmarked) [Example 1.1.1, 6-chloro-5-(2-(1-(4-chloro-2-fluorophenyl)-3,4,6,7,8,9-hexahydroimidazo[1,2-a:5,4-c′]dipyridin-2(1H)-yl)-2-oxoethoxy)-N,N-dimethylpicolinamide]
12 nM		Cc1nc(C)c(C2c3c(nc4n3CCCC4)CCN2C(=O)COc2ccc(NS(C)(=O)=O)nc2Cl)s1 (centres unmarked) [Example 1.10.1, N-(6-chloro-5-(2-(1-(2,4-dimethylthiazol-5-yl)-3,4,6,7,8,9-hexahydroimidazo[1,2-a:5,4-c′]dipyridin-2(1H)-yl)-2-oxoethoxy)pyridin-2-yl)methanesulfonamide]
11 nM		CC(=O)N1CCn2c(nc3c2C(c2ccc(Cl)cn2)N(C(=O)COc2ccc(N4CCOCC4)nc2Cl)CC3)C1 (centres unmarked) [Example 5.15.1, 1-(7-acetyl-1-(5-chloropyridin-2-yl)-3,4,6,7,8,9-hexahydropyrido[4′,3′:4,5]imidazo[1,2-a]pyrazin-2(1H)-yl)-2-((2-chloro-6-morpholinopyridin-3-yl)oxy)ethanone]
10 nM		O=C(NC1CC1)c1ccc(OCC(=O)N2CCc3nc4n(c3C2c2ccc(Cl)cc2F)CCCC4)c(C2CC2)n1 (centres unmarked) [Example 1.1.22, 5-(2-(1-(4-chloro-2-fluorophenyl)-3,4,6,7,8,9-hexahydroimidazo[1,2-a:5,4-c′]dipyridin-2(1H)-yl)-2-oxoethoxy)-N,6-dicyclopropylpicolinamide]
7 nM		O=C(COc1ccc(N2CCCS2(=O)=O)nc1Cl)N1CCc2nc3n(c2C1c1ccc(Cl)cc1F)CCS3 (centres unmarked) [Example 4.1.2, 1-(5-(4-chloro-2-fluorophenyl)-2,3,7,8-tetrahydrothiazolo[2′,3′:2,3]imidazo[4,5-c]pyridin-6(5H)-yl)-2-((2-chloro-6-(1,1-dioxidoisothiazolidin-2-yl)pyridin-3-yl)oxy)ethanone]
6 nM		CCc1nc(NS(C)(=O)=O)ccc1OCC(=O)N1CCc2nc3n(c2[C@@H]1c1sc(C)nc1C)CCCC3 [Example 1.10.16, (R)-N-(5-(2-(1-(2,4-dimethylthiazol-5-yl)-3,4,6,7,8,9-hexahydroimidazo[1,2-a:5,4-c′]dipyridin-2(1H)-yl)-2-oxoethoxy)-6-ethylpyridin-2-yl)methanesulfonamide]
5 nM		COC(=O)c1csc(C2c3c(nc4n3CCN(C(C)=O)C4)CCN2C(=O)COc2ccc(N3CCOCC3)nc2Cl)c1 (centres unmarked) [Example 5.5.1, methyl 5-(7-acetyl-2-(2-((2-chloro-6-morpholinopyridin-3-yl)oxy)acetyl)-1,2,3,4,6,7,8,9-octahydropyrido[4′,3′:4,5]imidazo[1,2-a]pyrazin-1-yl)thiophene-3-carboxylate]
